Assay results taken from patent US20240131028A1, “CHEMOVACCINATION AGAINST PLASMODIUM INFECTION WITH SELECTIVE PLASMEPSIN X INHIBITORS” (Merck Sharp & Dohme LLC, priority 2021, published 2024).

System: ring stage parasites (Pf)
Assay: Parasite lactate dehydrogenase (LDH) growth assay (Parasite Assay, PfLDH Assay)
Format: cell-based, P. falciparum
Settings: Plasmodium falciparum, 72 h, Table 3; 72 hours growth, LDH readout; read-out: EC50

| SMILES | EC50 [nM] |
| --- | --- |
| CC1(C)CC(=O)N([C@@H](c2ccc(C#N)cc2)[C@H]2C[C@@H]2C(=O)N[C@H]2C[C@H](C(F)(F)F)Oc3ccccc32)C(=N)N1 [Example 47A] | 155 |
| CCC1(CC)CC(=O)N(C[C@H]2C[C@@H]2C(=O)N[C@@H]2CC(C)(C)Oc3ccc(F)cc32)C(=N)N1 [Example 7B] | 29 |
| CC[C@]1(C)CC(=O)N([C@H](CCOC)[C@H]2C[C@@H]2C(=O)N[C@H]2CC(C)(C)Oc3ccc(Cl)cc32)C(=N)N1 [Example 124] | 0.8 |
| COc1cncc([C@H]([C@H]2C[C@@H]2C(=O)N[C@@H]2c3ccccc3OC(C)(C)[C@H]2O)N2C(=N)NC(C)(C)CC2=O)c1 [Example 42] | 18.4 |
| COCC[C@H]([C@H]1C[C@@H]1C(=O)N[C@H]1CC(C)(C)Oc2c(F)cc(F)cc21)N1C(=N)NC(C)(C)CC1=O [Example 113B] | 7.5 |
| CCC1(CC)CC(=O)N(C[C@H]2C[C@@H]2C(=O)N[C@H]2C[C@@H](C(F)(F)F)Oc3ccccc32)C(=N)N1 [Example 8A] | 37 |
| CC1(C)CC(=O)N([C@H](c2cccnc2)[C@H]2C[C@@H]2C(=O)NC2CC(C)(C)Oc3cc(F)ccc32)C(=N)N1 (stereo partly drawn) [Example 77A] | 1.7 |
| CC[C@]1(C)CC(=O)N([C@H](CCOC)[C@H]2C[C@@H]2C(=O)N[C@H]2CC(C)(C)Oc3ccc(C)cc32)C(=N)N1 [Example 123] | 2 |
| COCC[C@H]([C@H]1C[C@@H]1C(=O)N[C@@H]1CC(C)(C)Oc2cc(C)ccc21)N1C(=N)NC(C)(C)CC1=O [Example 83B] | 26 |
| CC[C@]1(C)CC(=O)N([C@H](c2cncc(F)c2)[C@H]2C[C@@H]2C(=O)N[C@@H]2c3ccccc3OC(C)(C)[C@H]2O)C(=N)N1 [Example 66] | 2.6 |
| CC1(C)CC(=O)N([C@H](c2cncc(Cl)c2)[C@H]2C[C@@H]2C(=O)N[C@@H]2c3ccccc3OC(C)(C)[C@H]2O)C(=N)N1 [Example 59] | 3.8 |
| CCC1(CC)CC(=O)N(C[C@@H]2[C@@H](C(=O)N[C@H]3c4ccccc4OC(C)(C)[C@H]3O)C2(F)F)C(=N)N1 [Example 18A] | 39 |
| COCC[C@H]([C@H]1C[C@@H]1C(=O)N[C@H]1CC(C)(C)Oc2cc(OC)ccc21)N1C(=N)NC(C)(C)CC1=O [Example 70B] | 19 |
| COCC[C@H]([C@H]1C[C@@H]1C(=O)NC1CC(C)(C)Oc2c(Cl)cc(Cl)cc21)N1C(=N)NC(C)(C)CC1=O (stereo partly drawn) [Example 106A] | 7.4 |
| COCC[C@H]([C@H]1C[C@@H]1C(=O)N[C@@H]1C[C@@H](C(F)(F)F)Oc2ccccc21)N1C(=N)NC(C)(C)CC1=O [Example 24B] | 2 |
| CC1(C)CC(=O)N([C@H](c2cccnc2)[C@H]2C[C@@H]2C(=O)N[C@H]2CC(C)(C)Oc3ccc(Cl)cc32)C(=N)N1 [Example 120] | 1 |

| SMILES | EC50 [nM] |
| --- | --- |
| COCC[C@H]([C@H]1C[C@@H]1C(=O)N[C@H]1CC(C)(C)Oc2ccc(C)cc21)N1C(=N)NC(C)(C)CC1=O [Example 132] | 6.7 |
| COCC[C@H]([C@H]1C[C@@H]1C(=O)N[C@@H]1CC(C)(C)Oc2ccc(C(F)(F)F)cc21)N1C(=N)NC(C)(C)CC1=O [Example 110A] | 21 |
| CC[C@]1(C)CC(=O)N([C@H](c2cccnc2)[C@H]2C[C@@H]2C(=O)N[C@H]2CC(C)(C)Oc3ccccc32)C(=N)N1 [Example 63] | 1.2 |
| CC1C[C@H](NC(=O)[C@H]2C[C@@H]2CN2C(=N)NC(C)(C)CC2=O)c2cc(F)ccc2O1 (stereo partly drawn) [Example 139A] | 99 |
| CCC1(CC)CC(=O)N([C@H](c2cccnc2)[C@H]2C[C@@H]2C(=O)N[C@@H]2c3ccccc3OC(C)(C)[C@H]2O)C(=N)N1 [Example 11A] | 4.1 |
| CCC1(CC)CC(=O)N([C@H](CCOC)[C@H]2C[C@@H]2C(=O)N[C@@H]2c3ccccc3OCC2(C)C)C(=N)N1 [Example 19A] | 28 |
| CC1(C)CC(=O)N(C[C@H]2C[C@@H]2C(=O)N[C@H]2CC(C)(C)Oc3ccc(C(F)(F)F)cc32)C(=N)N1 [Example 100] | 170 |
| CC1(C)CC(=O)N([C@@H](c2ccc(C#N)cc2)[C@H]2C[C@@H]2C(=O)N[C@H]2CC(C)(C)Oc3ccccc32)C(=N)N1 [Example 45B] | 220 |
| COCC[C@H]([C@H]1C[C@@H]1C(=O)N[C@@H]1CC(C)(C)Oc2cc(Cl)ccc21)N1C(=N)NC(C)(C)CC1=O [Example 89B] | 22 |
| Cc1cc2c(cc1Cl)[C@@H](NC(=O)[C@H]1C[C@@H]1CN1C(=N)NC(C)(C)CC1=O)CC(C)(C)O2 [Example 136] | 160 |
| COc1ccc([C@H]([C@H]2C[C@@H]2C(=O)N[C@@H]2c3ccccc3OC(C)(C)[C@H]2O)N2C(=N)NC(C)(C)CC2=O)cn1 [Example 39] | 10.1 |
| CC1[C@H](C(c2cccnc2)N2C(=N)NC(C)(C)CC2=O)[C@H]1C(=O)N[C@H]1CC(C)(C)Oc2ccccc21 (stereo partly drawn) [Example 57B] | 100 |
| COCC[C@H]([C@H]1C[C@@H]1C(=O)NC1CC(C)(C)Oc2cc(F)ccc21)N1C(=N)NC(C)(C)CC1=O (stereo partly drawn) [Example 76A] | 17 |
| CC1(C)CC(=O)N([C@H](c2cncc(Cl)c2)[C@H]2C[C@@H]2C(=O)N[C@H]2C[C@H](C(F)(F)F)Oc3ccccc32)C(=N)N1 [Example 60A] | 0.5 |
| CC1(C)CC(=O)N([C@H](c2cccc(C#N)c2)[C@H]2C[C@@H]2C(=O)N[C@H]2C[C@H](C(F)(F)F)Oc3ccccc32)C(=N)N1 [Example 52] | 1 |
| CC1(C)CC(=O)N(C[C@H]2C[C@@H]2C(=O)NC2CC(C)(C)Oc3c(Cl)cc(Cl)cc32)C(=N)N1 (stereo partly drawn) [Example 97A] | 180 |

Same assay, conditions: Plasmodium falciparum, 72 h, Table 4; 72 hours growth, LDH readout; read-out: EC50 (Table 4)

| SMILES | EC50 [nM] |
| --- | --- |
| CCC1(CC)CC(=O)N([C@H](CCOC)[C@H]2C[C@@H]2C(=O)N[C@H]2CC(C)(C)Oc3ccc(Cl)cc32)C(=N)N1 [Example 146] | 1.1 |
| CCC1(CC)CC(=O)N([C@H](CCOC)[C@H]2C[C@@H]2C(=O)N[C@H]2c3ccccc3OC(C)(C)[C@@H]2O)C(=N)N1 [Example 144] | 165 |

Same assay, conditions: Table 3; 72 hours growth, LDH readout; read-out: EC50

| SMILES | EC50 [nM] |
| --- | --- |
| COCC1(C)CC(NC(=O)[C@H]2C[C@@H]2[C@@H](c2cccnc2)N2C(=N)NC(C)(C)CC2=O)c2ccccc2O1 (single isomer, unassigned) [Example 108A] | 70 |
| CC1(C)CC(=O)N(C(c2cccnc2)[C@@H]2[C@@H](C(=O)N[C@H]3CC(C)(C)Oc4ccccc43)C2(C)C)C(=N)N1 (stereo partly drawn) [Example 49B] | 14 |
| COCC1(C)CC(NC(=O)[C@H]2C[C@@H]2[C@@H](c2cccnc2)N2C(=N)NC(C)(C)CC2=O)c2ccccc2O1 (single isomer, unassigned) [Example 108D] | 8.5 |
| CC1(C)CC(=O)N(C[C@H]2C[C@@H]2C(=O)NC2CC(C)(C)Oc3ccc(OC(F)(F)F)cc32)C(=N)N1 (stereo partly drawn) [Example 125B] | 160 |
| CC1(C)CC(=O)N([C@H](c2cccnc2)[C@H]2C[C@@H]2C(=O)N[C@@H]2CC(C)(C)Oc3cccc(F)c32)C(=N)N1 [Example 86B] | 2.8 |
| COCC[C@H]([C@H]1C[C@@H]1C(=O)NC1CC(C)(C)Oc2ccccc21)N1C(=N)NC(C)(C)CC1=O (stereo partly drawn) [Example 23B] | 15 |
| COCC[C@H]([C@H]1C[C@@H]1C(=O)NC1CC(C)(C)Oc2ccc(OC(F)(F)F)cc21)N1C(=N)NC(C)(C)CC1=O (stereo partly drawn) [Example 126B] | 8.4 |
| COCC[C@H]([C@H]1C[C@@H]1C(=O)NC1CC(C)(C(C)C)Oc2ccccc21)N1C(=N)NC(C)(C)CC1=O (single isomer, unassigned) [Example 80D] | 21 |
| CCC1(CC)CC(=O)N(CC2C(C(=O)N[C@H]3C[C@@H](C(F)(F)F)Oc4ccccc43)C2(F)F)C(=N)N1 (single isomer, unassigned) [Example 17A] | 47 |
| CC1(C)CC(=O)N([C@H](c2cccnc2)[C@H]2C[C@@H]2C(=O)NC2CC(C)(C)Oc3ccc(F)cc32)C(=N)N1 (single isomer, unassigned) [Example 98B] | 2.2 |
| CCC1(CC)CC(=O)N(C[C@H]2C(C)[C@@H]2C(=O)N[C@H]2c3ccccc3CC2(C)O)C(=N)N1 (single isomer, unassigned) [Example 29C] | 113 |
| CCC1(CC)CC(=O)N(C(c2cccnc2)[C@H]2C(C)[C@@H]2C(=O)N[C@H]2C[C@H](C(F)(F)F)Oc3ccccc32)C(=N)N1 (single isomer, unassigned) [Example 55B] | 180 |
| CC1(C)CC(=O)N([C@H](c2cccnc2)[C@H]2C[C@@H]2C(=O)NC2CC(C)(C)Oc3c(Cl)cccc32)C(=N)N1 (stereo partly drawn) [Example 121B] | 2 |
| CCC1(CC)CC(=O)N(C[C@H]2C(C)[C@@H]2C(=O)N[C@H]2c3ccccc3CC2(C)O)C(=N)N1 (single isomer, unassigned) [Example 29A] | 203 |
| COCC[C@H]([C@H]1C[C@@H]1C(=O)NC1CC(C)(C)Oc2cc(OC(F)(F)F)ccc21)N1C(=N)NC(C)(C)CC1=O (single isomer, unassigned) [Example 134B] | 25 |
| CC1(C)CC(=O)N([C@H](c2cccnc2)[C@H]2C[C@@H]2C(=O)NC2CC(C)(C)Oc3ccc(F)cc32)C(=N)N1 (single isomer, unassigned) [Example 98A] | 0.9 |
| CCC1(C)CC(NC(=O)[C@H]2C[C@@H]2[C@@H](CCOC)N2C(=N)NC(C)(C)CC2=O)c2ccccc2O1 (single isomer, unassigned) [Example 75B] | 7.5 |
| CCC1(CC)CC(=O)N(C[C@H]2C(C)[C@@H]2C(=O)N[C@H]2C[C@@H](C(F)(F)F)Oc3ccccc32)C(=N)N1 (stereo partly drawn) [Example 28B] | 14 |
| COCC[C@H]([C@H]1C[C@@H]1C(=O)NC1CC(C)(C(C)C)Oc2ccccc21)N1C(=N)NC(C)(C)CC1=O (single isomer, unassigned) [Example 80A] | 9.4 |

Same assay, conditions: Table 4; 72 hours growth, LDH readout; read-out: EC50 (Table 4)

| SMILES | EC50 [nM] |
| --- | --- |
| CCC1(CC)CC(=O)N(C(CC(C)OC)[C@H]2C[C@@H]2C(=O)N[C@@H]2CC(C)(C)Oc3ccccc32)C(=N)N1 (single isomer, unassigned) [Example 143C] | 57.9 |
